Data taken from PubChem BioAssay AID248 (DTP/NCI, 2004).
Several values for one entry are separate records, joined by “and”; a condition that tells them apart may be missing. Identical values can stand only once. Inconclusive results and toxic doses are left out. Rule as the data show it: active = T/C of 150% or more; inactive = T/C below 125%.

Test system: L1210 leukemia ip in BDF1 mice, survival T/C
Test: NCI In Vivo Anticancer Drug Screen. Data for tumor model L1210 Leukemia (intraperitoneal) in B6D2F1 (BDF1) mice
Conditions: endpoint: mean survival time, higher = longer survival
In short: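 Mice bearing the transplanted tumor received compound or vehicle. Survival of the treated group was divided by that of the vehicle-treated control group to give the ratio.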

[1] = dose: 100.0 mg/kg/injection, schedule: Q01DX001 (ip), vehicle: saline
[2] = dose: 200.0 mg/kg/injection, schedule: Q01DX001 (ip), vehicle: saline
[3] = dose: 400.0 mg/kg/injection, schedule: Q01DX001 (ip), vehicle: saline
[4] = dose: 100.0 mg/kg/injection, schedule: Q04DX003 (ip), vehicle: saline
[5] = dose: 200.0 mg/kg/injection, schedule: Q04DX003 (ip), vehicle: saline
[6] = dose: 400.0 mg/kg/injection, schedule: Q04DX003 (ip), vehicle: saline
[7] = dose: 100.0 mg/kg/injection, schedule: Q01DX009 (ip), vehicle: Klucel (hydroxypropylcellulose) (HPC)
[8] = dose: 200.0 mg/kg/injection, schedule: Q01DX009 (ip), vehicle: Klucel (hydroxypropylcellulose) (HPC)
[9] = dose: 400.0 mg/kg/injection, schedule: Q01DX009 (ip), vehicle: Klucel (hydroxypropylcellulose) (HPC)
[10] = dose: 100.0 mg/kg/injection, schedule: Q01DX009 (ip), vehicle: saline with Tween-80
[11] = dose: 200.0 mg/kg/injection, schedule: Q01DX009 (ip), vehicle: saline with Tween-80
[12] = dose: 100.0 mg/kg/injection, schedule: Q04DX002 (ip), vehicle: Klucel (hydroxypropylcellulose) (HPC)
[13] = dose: 200.0 mg/kg/injection, schedule: Q04DX002 (ip), vehicle: Klucel (hydroxypropylcellulose) (HPC)
[14] = dose: 400.0 mg/kg/injection, schedule: Q04DX002 (ip), vehicle: Klucel (hydroxypropylcellulose) (HPC)
[15] = dose: 400.0 mg/kg/injection, schedule: Q01DX009 (ip), vehicle: saline with Tween-80

Measured: T/C

O=C(O)COc1ccc(C2CCc3ccccc32)cc1 (stereo unspecified)
inactive: dose: 75.0 mg/kg/injection, schedule: Q01DX001 (ip), vehicle: Klucel (hydroxypropylcellulose) (HPC) 104 % of control | dose: 150.0 mg/kg/injection, schedule: Q01DX001 (ip), vehicle: Klucel (hydroxypropylcellulose) (HPC) 101 % of control | dose: 300.0 mg/kg/injection, schedule: Q01DX001 (ip), vehicle: Klucel (hydroxypropylcellulose) (HPC) 101 % of control

CCCCCCCCC(S(=O)(=O)CC)S(=O)(=O)CC
inactive: [1] 97 % of control | [2] 94 % of control | [3] 92 % of control

CC(C)(C)C(=O)N/N=C\c1ccc([N+](=O)[O-])s1
inactive: [4] 93 % of control | [5] 87 % of control | [6] 94 % of control

Cc1ccc(NCCN2CCCCC2)c2c(=O)c3ccccc3sc12
inactive: dose: 100.0 mg/kg/injection, schedule: Q01DX009 (ip), vehicle: saline 110 % of control | dose: 200.0 mg/kg/injection, schedule: Q01DX009 (ip), vehicle: saline 96 % of control | dose: 400.0 mg/kg/injection, schedule: Q01DX009 (ip), vehicle: saline 107 % of control

Cc1cc(NC(=O)Oc2ccccc2)ccc1S(=O)(=O)F
inactive: dose: 75.0 mg/kg/injection, schedule: Q01DX001 (ip), vehicle: steriod suspending solution 102 % of control | dose: 150.0 mg/kg/injection, schedule: Q01DX001 (ip), vehicle: steriod suspending solution 96 % of control | dose: 300.0 mg/kg/injection, schedule: Q01DX001 (ip), vehicle: steriod suspending solution 98 % of control

O=C(COc1cc(Cl)cc(Cl)c1)NCc1ccc(Cl)cc1
inactive: [7] 91 % of control | dose: 100.0 mg/kg/injection, schedule: Q04DX003 (ip), vehicle: Klucel (hydroxypropylcellulose) (HPC) 95 % of control | [8] 88 % of control | dose: 200.0 mg/kg/injection, schedule: Q04DX003 (ip), vehicle: Klucel (hydroxypropylcellulose) (HPC) 95 % of control | [9] 95 % of control | dose: 400.0 mg/kg/injection, schedule: Q04DX003 (ip), vehicle: Klucel (hydroxypropylcellulose) (HPC) 88 % of control

CCCCCCCCCC/C=C/c1c(C)[nH]c2ccccc2c1=O
inactive: dose: 100.0 mg/kg/injection, schedule: Q01DX009 (ip), vehicle: alcohol 98 % of control | dose: 100.0 mg/kg/injection, schedule: Q04DX003 (ip), vehicle: alcohol 93 % of control | dose: 200.0 mg/kg/injection, schedule: Q04DX003 (ip), vehicle: alcohol 100 % of control | dose: 400.0 mg/kg/injection, schedule: Q04DX003 (ip), vehicle: alcohol 88 % of control

CC(=O)c1ccc2c(c1)sc1cc(C(C)=O)ccc12
inactive: dose: 50.0 mg/kg/injection, schedule: Q01DX001 (ip), vehicle: carboxymethylcellulose (CMC) 96 % of control | dose: 100.0 mg/kg/injection, schedule: Q01DX001 (ip), vehicle: carboxymethylcellulose (CMC) 100 % of control | dose: 200.0 mg/kg/injection, schedule: Q01DX001 (ip), vehicle: carboxymethylcellulose (CMC) 90 % of control | dose: 400.0 mg/kg/injection, schedule: Q01DX001 (ip), vehicle: carboxymethylcellulose (CMC) 90 % of control

CC(=O)N/C(N)=N/N=C(C)/C=N\N
inactive: dose: 15.0 mg/kg/injection, schedule: Q01DX Z (ip), vehicle: carboxymethylcellulose (CMC) 96 % of control | dose: 30.0 mg/kg/injection, schedule: Q01DX Z (ip), vehicle: carboxymethylcellulose (CMC) 96 % of control | dose: 60.0 mg/kg/injection, schedule: Q01DX Z (ip), vehicle: carboxymethylcellulose (CMC) 101 % of control | dose: 120.0 mg/kg/injection, schedule: Q01DX Z (ip), vehicle: carboxymethylcellulose (CMC) 101 % of control | dose: 120.0 mg/kg/injection, schedule: Q01DX Z (oral), vehicle: carboxymethylcellulose (CMC) 111 % of control

CC(=O)N/N=C/c1cccc([N+](=O)[O-])c1
inactive: dose: 50.0 mg/kg/injection, schedule: Q01DX009 (ip), vehicle: saline with Tween-80 102 % of control | [10] 97 % of control | [11] 94 % of control

O=C(C(CO)C(CO)C(=O)N1Cc2cc3ccccc3nc2C1)N1Cc2cc3ccccc3nc2C1 (stereo unspecified)
inactive: dose: 100.0 mg/kg/injection, schedule: Q01DX001 (ip), vehicle: Klucel (hydroxypropylcellulose) (HPC) 103 % of control | dose: 200.0 mg/kg/injection, schedule: Q01DX001 (ip), vehicle: Klucel (hydroxypropylcellulose) (HPC) 95 % of control | dose: 400.0 mg/kg/injection, schedule: Q01DX001 (ip), vehicle: Klucel (hydroxypropylcellulose) (HPC) 92 % of control

C[S+]1CCC(N)C(=O)C1 (stereo unspecified)
inactive: dose: 12.5 mg/kg/injection, schedule: Q04DX002 (ip), vehicle: saline 103 % of control | dose: 25.0 mg/kg/injection, schedule: Q04DX002 (ip), vehicle: saline 120 % of control | dose: 50.0 mg/kg/injection, schedule: Q04DX002 (ip), vehicle: saline 113 % of control and 91 % of control | dose: 100.0 mg/kg/injection, schedule: Q04DX002 (ip), vehicle: saline 103 % of control

O=c1oc2ccccc2cc1-c1ccc([N+](=O)[O-])cc1
inactive: [12] 100 % of control | [13] 89 % of control | [14] 89 % of control

CCN(CC)C(=S)N1CCCCC1
inactive: [7] 99 % of control | [12] 100 % of control | [8] 105 % of control | [13] 90 % of control | [9] 108 % of control | [14] 110 % of control

CCN(CCO)CC1C(c2ccccc2)C1c1ccccc1 (stereo unspecified)
inactive: dose: 12.5 mg/kg/injection, schedule: Q04DX002 (ip), vehicle: Klucel (hydroxypropylcellulose) (HPC) 93 % of control | dose: 25.0 mg/kg/injection, schedule: Q04DX002 (ip), vehicle: Klucel (hydroxypropylcellulose) (HPC) 90 % of control | dose: 50.0 mg/kg/injection, schedule: Q04DX002 (ip), vehicle: Klucel (hydroxypropylcellulose) (HPC) 90 % of control

Cc1nc2ccccc2c(Br)c1Br
inactive: [1] 91 % of control | [2] 94 % of control | [3] 96 % of control

CCCCCCCCCCC(=O)CCCC
inactive: [10] 100 % of control | [11] 102 % of control | [15] 104 % of control

CCC(C)C(NC(=O)C1CSC(C)(C)N1C=O)C(=O)OC (stereo unspecified)
inactive: [4] 106 % of control | [5] 97 % of control | [6] 103 % of control

OCCc1ccc[nH]1
inactive: dose: 75.0 mg/kg/injection, schedule: Q01DX001 (ip), vehicle: saline 105 % of control | dose: 150.0 mg/kg/injection, schedule: Q01DX001 (ip), vehicle: saline 105 % of control | dose: 300.0 mg/kg/injection, schedule: Q01DX001 (ip), vehicle: saline 105 % of control

CCC(C)(C)NC(N)=O
inactive: [12] 99 % of control | [13] 92 % of control | [14] 96 % of control

O=c1[nH]cnc2ncccc12
inactive: [1] 106 % of control | [2] 104 % of control

O=C(c1ccccc1CO)N1CCCCC1
inactive: [12] 112 % of control | [13] 105 % of control

O=C(CNC(=O)c1ccccc1)N/N=C/c1cccc2ccccc12
inactive: [10] 89 % of control | [11] 94 % of control | [15] 94 % of control

CC(=O)NC(C)C
inactive: dose: 100.0 mg/kg/injection, schedule: Q04DX003 (ip), vehicle: saline with Tween-80 93 % of control | dose: 200.0 mg/kg/injection, schedule: Q04DX003 (ip), vehicle: saline with Tween-80 100 % of control | dose: 400.0 mg/kg/injection, schedule: Q04DX003 (ip), vehicle: saline with Tween-80 96 % of control
